Data published in PMC9545474, “Anticancer Water‐Soluble Organoruthenium Complexes: Synthesis and Preclinical Evaluation” (Chembiochem, 2022).

Legend:
Format in all cases: cell-based, human
A2780 cells [1] = experiment: FITC annexin-V / PI apoptosis assay by flow cytometry; settings: A2780, 24 h, complexes 2×IC50, doxorubicin 0.5 µM
Text: Annexin V‐FITC and propidium iodide (PI) have been used to distinguish between viable cells (Q1‐LL), early apoptotic cells (Q1‐LR), late apoptotic cells (Q1‐UR), and necrotic cells (Q1‐UL). […] Both complexes 6 and 8 induce apoptosis of A2780 cells and treatment with the complexes results in 99.6 % and 95.4 % of the cells in late apoptosis, respectively.
Figure 9 Flow cytometry analysis of A2780 cells exposed to complexes 6 or 8 at twice the IC50 concentration compared to a negative control. FITC reads annexin fluorescence and PE reads propidium iodide. Abbreviations: Q1‐UL=non‐viable cells; Q1‐UR=late‐stage apoptotic cells; Q1‐LR=early‐stage apoptotic cells and Q1‐LL=healthy cells.
FITC annexin‐V apoptosis assay: Flow cytometry analysis of apoptotic populations was carried out using the FITC Annexin V Apoptosis Detection Kit with PI (BioLegend®) according to manufacturer's instructions. Briefly, A2780 cells were seeded in 6‐well plates at a concentration of 1.0×10^6 cells per well and the plates were incubated for 24 h at 37 °C and a 5 % CO2 humidified atmosphere. […] Cells were then harvested using trypsin (without EDTA) and stained with PI/Annexin V‐FITC. After staining in the dark for 15 min at room temperature, cell pellets were analysed in a BD Accuri C6 Plus System flow cytometer and data was analysed using the BD Accuri C6 Plus software. These experiments were carried out in duplicate of triplicates in independent experiments; although only selected dot plots are shown, full numerical data and statistical analysis can be found in the Supporting Information.

[2] = test system: A2780 ovarian cancer cells; experiment: 24-hour MTT chemosensitivity assay with 72-hour recovery, A2780; settings: for IC50: 24 h exposure, 72 h recovery, MTT, read-out: IC50 values ±SD, A2780; for Selectivity index (SI), A2780: mean IC50 PNT2 / mean IC50 A2780
Method: Chemosensitivity studies were undertaken using a 24‐hour MTT assay, with a 72‐hour recovery period. The IC50 values were determined against ovarian A2780 (cisplatin‐sensitive) and A2780cisR (cisplatin‐resistant) cancer cell lines, non‐small‐cell lung H460 cancer cell line, and normal prostate PNT2 cell line, exposed to each of compounds 4–8, cisplatin or the phosphine ligands (Table 1 and S4, Figures S29–S31). […] This is unusual but can be related to solubility issues not visible for the naked eye and thus hindering its activity in cells. […] When tested on their own, the phosphine ligands are not active below 100 μM for all four cell lines. […] This therefore prevents comparison with the well‐known RAPTA family, and more especially with RAPTA−C which bears a PTA ligand and a p‐cym ligand, making this complex relatively similar in terms of geometry with complex 4.[21] […] This confirms the interest of the sulfur coordinating atom in terms of cytotoxicity for organoruthenium complexes.[23]
Chemosensitivity assay: In vitro chemosensitivity tests were performed against A2780, A2780cisR, PNT2 and H460 cells. Cells were routinely maintained as monolayer cultures in RPMI 1640 medium supplemented with 10 % foetal calf serum, penicillin (100 I.U./mL) and streptomycin (100 μg/mL), sodium pyruvate (1 mM) and L‐glutamine (2 mM). For chemosensitivity studies, cells were seeded in 96‐well plates at a concentration of 7.5×10^3 cells per well and the plates were incubated for 24 h at 37 °C and a 5 % CO2 humidified atmosphere prior to drug exposure.
Complexes were dissolved in either DMSO (complexes 4, 5, and 8) or PBS (complexes 6 and 7) to provide stock solutions which were further diluted with media to provide a range of final concentrations. Drug‐media solutions were added to cells (the final concentration of DMSO was less than 1 % (v/v) in all cases) and incubated for 24 h at 37 °C and a 5 % CO2 humidified atmosphere. The drug‐media solution was removed from the wells and the cells were washed with PBS (100 μL, twice) and 200 μL of complete fresh media were added to each well. The plates were further incubated for 72 h at 37 °C and a 5 % CO2 humidified atmosphere to allow for a period of recovery. 3‐(4,5‐dimethylthiazol‐2‐yl)‐2,5‐diphenyltetrazolium bromide (MTT) (40 μL, 2.5 mg/mL) was added to each well and plates were incubated for 2 h. All solutions were then removed and 100 μL of DMSO was added to each well in order to dissolve the purple formazan crystals. A Thermo Scientific Multiskan EX microplate photometer was used to measure the absorbance in each well at 570 nm. Cell survival was determined as the absorbance of treated cells divided by the absorbance of controls and expressed as a percentage. The IC50 values were determined from plots of % survival against drug concentration. Each experiment was repeated in triplicates of triplicates and a mean value was obtained and stated as IC50 (μM) ± SD. Untreated cells were used as a negative control, and cells treated with cisplatin were used as a positive control.

A2780 cells [3] = experiment: Cell viability with N-acetylcysteine (MTT), A2780; settings: A2780, NAC 5 mM 30 min before complexes at IC50
Method: Cell viability with N ‐acetylcysteine: Cells were seeded in 96‐well plates at a concentration of 7.5×10^3 cells per well and the plates were incubated for 24 h at 37 °C and a 5 % CO2 humidified atmosphere prior to drug exposure. Complexes were dissolved in either DMSO or PBS to provide stock solutions which were further diluted with media to provide a range of final concentrations. Solution of N‐acetylcysteine (NAC) in media was also prepared. […] Cells were incubated for 24 h at 37 °C and a 5 % CO2 humidified atmosphere. 3‐(4,5‐dimethylthiazol‐2‐yl)‐2,5‐diphenyltetrazolium bromide (MTT) (20 μL, 2.5 mg/mL) was added to each well and plates were incubated for 2 h. All solutions were then removed and 100 μL of DMSO was added to each well in order to dissolve the purple formazan crystals. A Thermo Scientific Multiskan EX microplate photometer was used to measure the absorbance in each well at 570 nm. Cell survival was determined as the absorbance of treated cells divided by the absorbance of controls and expressed as a percentage.

[4] = Combined results, Average of two experiments

Compound	Early apoptosis (Q1-LR) (A2780 cells [1]; [4]) [%]	Late apoptosis (Q1-UR) (A2780 cells [1]; [4]) [%]	Necrosis (Q1-UL) (A2780 cells [1]; [4]) [%]	Viable cells (Q1-LL) (A2780 cells [1]; [4]) [%]	Early apoptosis (Q1-LR) (A2780 cells [1]; Experiment 1, Average) [%]	Late apoptosis (Q1-UR) (A2780 cells [1]; Experiment 1, Average) [%]	Necrosis (Q1-UL) (A2780 cells [1]; Experiment 1, Average) [%]	Viable cells (Q1-LL) (A2780 cells [1]; Experiment 1, Average) [%]	Early apoptosis (Q1-LR) (A2780 cells [1]; Experiment 1, Rep 1) [%]	Late apoptosis (Q1-UR) (A2780 cells [1]; Experiment 1, Rep 1) [%]	Necrosis (Q1-UL) (A2780 cells [1]; Experiment 1, Rep 1) [%]	Viable cells (Q1-LL) (A2780 cells [1]; Experiment 1, Rep 1) [%]	Early apoptosis (Q1-LR) (A2780 cells [1]; Experiment 1, Rep 2) [%]	Late apoptosis (Q1-UR) (A2780 cells [1]; Experiment 1, Rep 2) [%]	Necrosis (Q1-UL) (A2780 cells [1]; Experiment 1, Rep 2) [%]	Viable cells (Q1-LL) (A2780 cells [1]; Experiment 1, Rep 2) [%]	Early apoptosis (Q1-LR) (A2780 cells [1]; Experiment 1, Rep 3) [%]	Late apoptosis (Q1-UR) (A2780 cells [1]; Experiment 1, Rep 3) [%]	Necrosis (Q1-UL) (A2780 cells [1]; Experiment 1, Rep 3) [%]	Viable cells (Q1-LL) (A2780 cells [1]; Experiment 1, Rep 3) [%]	other results
Cc1ccc(C(C)C)cc1.N#CC1=C(C#N)[S][Ru-]([P+](c2ccccc2)(c2ccccc2)c2ccccc2)[S]1 [Complex 8, (η^6‐p‐cymene)(PPh3)Ru(Mnt)]	2.5	94.4	0.5	2.6	2.6	94.3	0.4	2.7	2.6	95.4	0.3	1.7	2.2	94.5	0.4	2.8	3.0	93.0	0.6	3.5	Early apoptosis (Q1-LR) (A2780 cells [1]; Experiment 2, Average): 2.4%; Late apoptosis (Q1-UR) (A2780 cells [1]; Experiment 2, Average): 94.5%; Necrosis (Q1-UL) (A2780 cells [1]; Experiment 2, Average): 0.6%; Viable cells (Q1-LL) (A2780 cells [1]; Experiment 2, Average): 2.5%; Early apoptosis (Q1-LR) (A2780 cells [1]; Experiment 2, Rep 1): 2.0%; Late apoptosis (Q1-UR) (A2780 cells [1]; Experiment 2, Rep 1): 95.1%; Necrosis (Q1-UL) (A2780 cells [1]; Experiment 2, Rep 1): 0.6%; Viable cells (Q1-LL) (A2780 cells [1]; Experiment 2, Rep 1): 2.3%; Early apoptosis (Q1-LR) (A2780 cells [1]; Experiment 2, Rep 2): 2.3%; Late apoptosis (Q1-UR) (A2780 cells [1]; Experiment 2, Rep 2): 94.2%; Necrosis (Q1-UL) (A2780 cells [1]; Experiment 2, Rep 2): 0.8%; Viable cells (Q1-LL) (A2780 cells [1]; Experiment 2, Rep 2): 2.7%; Early apoptosis (Q1-LR) (A2780 cells [1]; Experiment 2, Rep 3): 2.9%; Late apoptosis (Q1-UR) (A2780 cells [1]; Experiment 2, Rep 3): 94.1%; Necrosis (Q1-UL) (A2780 cells [1]; Experiment 2, Rep 3): 0.5%; Viable cells (Q1-LL) (A2780 cells [1]; Experiment 2, Rep 3): 2.5%; IC50 [2]: 960 ± 40 nM; Selectivity index (SI), A2780 [2]: 2.50; Cell viability after pre-treatment with NAC (A2780 cells [3]): increase of the cell viability
(η^6‐p‐cymene)(TPPTS)Ru(Mnt) [Complex 6]	0.1	99.8	0.0	0.2	0.1	99.6	0.0	0.2	0.1	99.6	0.0	0.2	0.1	99.6	0.0	0.2	0.2	99.5	0.0	0.3	Early apoptosis (Q1-LR) (A2780 cells [1]; Experiment 2, Average): 0.0%; Late apoptosis (Q1-UR) (A2780 cells [1]; Experiment 2, Average): 99.9%; Necrosis (Q1-UL) (A2780 cells [1]; Experiment 2, Average): 0.0%; Viable cells (Q1-LL) (A2780 cells [1]; Experiment 2, Average): 0.1%; Early apoptosis (Q1-LR) (A2780 cells [1]; Experiment 2, Rep 1): 0.0%; Late apoptosis (Q1-UR) (A2780 cells [1]; Experiment 2, Rep 1): 99.9%; Necrosis (Q1-UL) (A2780 cells [1]; Experiment 2, Rep 1): 0.0%; Viable cells (Q1-LL) (A2780 cells [1]; Experiment 2, Rep 1): 0.1%; Early apoptosis (Q1-LR) (A2780 cells [1]; Experiment 2, Rep 2): 0.0%; Late apoptosis (Q1-UR) (A2780 cells [1]; Experiment 2, Rep 2): 99.9%; Necrosis (Q1-UL) (A2780 cells [1]; Experiment 2, Rep 2): 0.0%; Viable cells (Q1-LL) (A2780 cells [1]; Experiment 2, Rep 2): 0.0%; Early apoptosis (Q1-LR) (A2780 cells [1]; Experiment 2, Rep 3): 0.0%; Late apoptosis (Q1-UR) (A2780 cells [1]; Experiment 2, Rep 3): 99.9%; Necrosis (Q1-UL) (A2780 cells [1]; Experiment 2, Rep 3): 0.0%; Viable cells (Q1-LL) (A2780 cells [1]; Experiment 2, Rep 3): 0.1%; IC50 [2]: 600 ± 70 nM; Selectivity index (SI), A2780 [2]: 2.67; Cell viability after pre-treatment with NAC (A2780 cells [3]): increase of the cell viability
